From publication PMC6315438 (Metabolites, 2018)

Molecular target: T1, aryl hydrocarbon receptor (AHR) (Homo sapiens, UniProt P35869)
T1 construct: human AHR in liver cytosol of mice expressing human AHR; also HepG2 (40/6) cells
T1 sequence (P35869 11-848): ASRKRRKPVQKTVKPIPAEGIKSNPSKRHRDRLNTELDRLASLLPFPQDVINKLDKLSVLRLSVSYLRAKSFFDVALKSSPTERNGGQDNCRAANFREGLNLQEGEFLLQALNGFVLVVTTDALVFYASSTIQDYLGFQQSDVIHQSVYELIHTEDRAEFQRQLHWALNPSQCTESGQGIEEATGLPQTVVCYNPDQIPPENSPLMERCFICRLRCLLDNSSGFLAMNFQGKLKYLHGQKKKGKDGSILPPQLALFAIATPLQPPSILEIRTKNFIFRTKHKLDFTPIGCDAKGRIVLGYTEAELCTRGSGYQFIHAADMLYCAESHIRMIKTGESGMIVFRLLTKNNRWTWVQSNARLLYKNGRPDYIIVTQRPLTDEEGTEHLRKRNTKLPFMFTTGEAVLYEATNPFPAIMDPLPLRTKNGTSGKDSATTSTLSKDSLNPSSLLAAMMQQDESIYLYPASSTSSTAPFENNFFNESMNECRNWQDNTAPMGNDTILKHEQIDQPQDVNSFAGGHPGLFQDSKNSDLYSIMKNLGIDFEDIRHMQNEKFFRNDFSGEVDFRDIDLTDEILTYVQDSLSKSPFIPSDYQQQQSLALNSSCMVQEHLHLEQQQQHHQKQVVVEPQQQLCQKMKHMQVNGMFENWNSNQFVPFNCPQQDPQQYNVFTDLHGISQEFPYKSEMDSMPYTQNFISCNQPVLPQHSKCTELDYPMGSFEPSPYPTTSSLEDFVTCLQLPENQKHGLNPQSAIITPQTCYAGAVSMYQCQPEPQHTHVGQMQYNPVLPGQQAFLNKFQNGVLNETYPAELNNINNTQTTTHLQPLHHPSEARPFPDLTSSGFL
Experiment: competition with […] photoaffinity ligand (PAL) in human AHR-expressing hepatic cytosol
Type: binding

- IC50: 800 nM
SMILES: O=c1oc2cc(O)ccc2c2ccc(O)cc12 [UroA, Urolithin A]
